Several values for one entry are separate records, joined by “and”; a condition that tells them apart may be missing. Equal entries are not always repeated.
Target: T1, B-RAF (Homo sapiens, UniProt P15056, V600E)
T1 construct: made in house
Assay: DELFIA Kinase Assay
Assay type: biochemical
Conditions: 100 μM ATP, GST-MEK substrate
Protocol: Biological Methods—DELFIA Kinase Assay
Compounds were assessed by a kinase assay performed according to the following protocol.
DKB1 (DKB with B-RAF and MEK Protein):
Combine 4950 μL of DKB and 50 μL of 2.5 mg/ml GST-MEK stock (to give […] of MEK per 40 μL). Then add 22.5 μL of B-RAF to give ˜0.2 μL of B-RAF per 40 μL.
100 mM stock, dilute to 500 μM to give 100 μM final concentration in assay.
• 1. Preblock wells with 5% milk in TBS for 1 hour. • 2. Wash wells with 3× with 200 μL TBS. • 3. Plate out 40 μL of DKB1 for all inhibitors (test compounds), DMSO control, and optionally other control compounds. • 4. Plate out 40 μL of DKB2 for BO and EV wells. • 5. Add inhibitors (test compounds) at 0.5 μL per well according to desired plate layout. • 6. Add 0.5 μL DMSO to vehicle control wells. • 7. Add 2 μL of B-RAF to BO and EV wells. • 8. Pre-incubate with inhibitors (test compounds) for 10 minutes at room temperature with shaking. • 9. Add 10 μL of 500 μM ATP stock, in DKB, to give 100 μM assay concentration. • 10. Seal plates with TopSeal and incubate at room temperature with shaking for 45 minutes. • 11. Wash plates 3× with 200 μL 0.1% Tween20/Water to terminate reaction. • 12. Add 50 μL per well of antibody mix and incubate for 1 hour at room temperature with shaking. • 13. Wash plates 3× with 200 μL 0.1% Tween20/Water. • 14. Add 100 μL DELFIA enhancement solution per well, cover in foil, and incubate at room temperature for 30 minutes with shaking. • 15. Read on Victor using Europium protocol.
Values for the blank (Empty Vector) are subtracted from all values. The DMSO controls are set as 100% activity and assay points (the response) are calculated as a percentage of the DMSO control. Data are plotted using Graphpad Prism software and a non-linear regression line is calculated using a variable slope sigmoidal dose-response equation (Y=Bottom+(Top−Bottom)/(1+10^((LogEC50−X)*HillSlope)) where X is the logarithm of concentration. Y is the response). The IC50 generated by this procedure is the concentration of the drug that produces a percentage control fluorescence value midway between the saturation, and zero-effect plateaus. Three independent assays are usually performed and the mean IC50 is reported.

T1 sequence (P15056 whole entry V600E): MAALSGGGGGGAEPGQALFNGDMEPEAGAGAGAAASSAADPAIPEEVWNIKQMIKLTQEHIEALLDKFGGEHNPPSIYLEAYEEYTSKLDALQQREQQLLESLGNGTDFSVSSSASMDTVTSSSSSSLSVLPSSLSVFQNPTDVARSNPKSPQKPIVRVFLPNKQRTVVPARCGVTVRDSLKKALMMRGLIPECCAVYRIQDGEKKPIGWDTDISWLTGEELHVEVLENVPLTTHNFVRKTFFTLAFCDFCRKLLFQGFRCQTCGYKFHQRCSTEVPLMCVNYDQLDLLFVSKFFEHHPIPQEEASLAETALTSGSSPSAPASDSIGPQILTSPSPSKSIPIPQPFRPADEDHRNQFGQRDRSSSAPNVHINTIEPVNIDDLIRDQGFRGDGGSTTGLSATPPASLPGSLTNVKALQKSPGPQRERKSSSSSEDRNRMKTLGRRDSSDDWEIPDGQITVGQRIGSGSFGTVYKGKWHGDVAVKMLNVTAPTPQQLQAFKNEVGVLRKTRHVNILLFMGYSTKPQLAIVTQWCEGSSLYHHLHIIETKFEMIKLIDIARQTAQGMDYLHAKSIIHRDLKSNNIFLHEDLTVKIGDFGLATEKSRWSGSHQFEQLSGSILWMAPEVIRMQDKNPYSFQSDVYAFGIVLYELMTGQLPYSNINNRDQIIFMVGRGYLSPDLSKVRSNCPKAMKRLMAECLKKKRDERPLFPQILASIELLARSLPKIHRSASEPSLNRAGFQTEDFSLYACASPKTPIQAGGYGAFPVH

IC50 | SMILES
< 100 nM | CSc1cc(Oc2ccnc3[nH]c(=O)c(=O)[nH]c23)ccc1NC(=O)Nc1cc(C(F)(F)F)ccc1F [AA-052, 1-(4-(2,3-dioxo-1,2,3,4-tetrahydropyrido[2,3-b]pyrazin-8-yloxy)-2-(methylthio)phenyl)-3-(2-fluoro-5-(trifluoromethyl)phenyl)urea]
< 100 nM | O=C(Nc1ccc(Cl)c(C(F)(F)F)c1)Nc1ccc(Oc2ccnc3[nH]c(=O)cnc23)cc1F [AA-025, 1-(4-Chloro-3-(trifluoromethyl)phenyl)-3-(2-fluoro-4-(3-oxo-3,4-dihydropyrido[2,3-b]pyrazin-8-yloxy)phenyl)urea]
< 1000 nM and 100 to 1000 nM | O=C(Nc1cc(C(F)(F)F)ccc1F)Nc1ccc(Oc2ccnc3ncc(=O)[nH]c23)c2ccccc12 [AA-038, 1-(2-fluoro-5-(trifluoromethyl)phenyl)-3-(4-(2-oxo-1,2-dihydropyrido[2,3-b]pyrazin-8-yloxy)naphthalen-1-yl)urea]
< 100 nM | Nc1nc2c(Oc3ccc(NC(=O)Nc4cc(C(F)(F)F)ccc4F)c(F)c3)ccnc2[nH]c1=O [AA-044, 1-(4-(2-amino-3-oxo-3,4-dihydropyrido[2,3-b]pyrazin-8-yloxy)-2-fluorophenyl)-3-(2-fluoro-5-(trifluoromethyl)phenyl)urea]
< 100 nM | O=C(Nc1ccc(Oc2ccnc3[nH]c(=O)cnc23)cc1F)Nc1cc(C(F)(F)F)ccc1F [AA-026, 1-(2-Fluoro-5-(trifluoromethyl)phenyl)-3-(2-fluoro-4-(3-oxo-3,4-dihydropyrido[2,3-b]pyrazin-8-yloxy)phenyl)urea]
< 100 nM | CSc1cc(Oc2ccnc3[nH]c(=O)cnc23)ccc1NC(=O)Nc1ccc(Cl)c(C(F)(F)F)c1 [AA-023]
< 100 nM | Cc1nc2c(Oc3ccc(NC(=O)Nc4cc(C(F)(F)F)ccc4F)c4ccccc34)ccnc2[nH]c1=O [AA-014, 1-(2-fluoro-5-(trifluoromethyl)phenyl)-3-(4-(2-methyl-3-oxo-3,4-dihydropyrido[2,3-b]pyrazin-8-yloxy)naphthalen-1-yl)urea]
< 100 nM | CSc1cc(Oc2ccnc3[nH]c(=O)c(=O)[nH]c23)ccc1NC(=O)Nc1ccc(Cl)c(C(F)(F)F)c1 [AA-051, 1-(4-chloro-3-(trifluoromethyl)phenyl)-3-(4-(2,3-dioxo-1,2,3,4-tetrahydropyrido[2,3-b]pyrazin-8-yloxy)-2-(methylthio)phenyl)urea]
< 100 nM | Nc1nc2c(Oc3ccc(NC(=O)Nc4cc(C(F)(F)F)ccc4F)c4ccccc34)ccnc2[nH]c1=O [AA-015, 1-(4-(2-amino-3-oxo-3,4-dihydropyrido[2,3-b]pyrazin-8-yloxy)naphthalen-1-yl)-3-(2-fluoro-5-(trifluoromethyl)phenyl)urea]

Second part, the molecule before the results:

SMILES | IC50
O=C(Nc1ccc(Oc2ccnc3nc(N4CCOCC4)cnc23)cc1F)Nc1cc(C(F)(F)F)ccc1F [AA-054, 1-(2-Fluoro-4-(3-morpholinopyrido[2,3-b]pyrazin-8-yloxy)phenyl)-3-(2-fluoro-5-(trifluoromethyl)phenyl)urea] | < 100 nM
Cc1nc2nccc(Oc3ccc(NC(=O)Nc4cc(C(C)(C)C)nn4-c4ccccc4)c(F)c3)c2[nH]c1=O [AA-041, 1-(3-Tert-butyl-1-phenyl-1H-pyrazol-5-yl)-3-(2-fluoro-4-(3-methyl-2-oxo-1,2-dihydropyrido[2,3-b]pyrazin-8-yloxy)phenyl)urea] | 100 to 1000 nM
Cc1ccc(-n2nc(C(C)(C)C)cc2NC(=O)Nc2cccc(Oc3ccnc4[nH]c(=O)cnc34)c2)cc1 [AA-006, 1-(3-tert-butyl-1-p-tolyl-1H-pyrazol-5-yl)-3-(3-(3-oxo-3,4-dihydropyrido[2,3-b]pyrazin-8-yloxy)phenyl)urea] | < 100 nM
CC(C)(C)c1cccc(C(=O)Nc2cccc(Oc3ccnc4ncc(=O)[nH]c34)c2)c1 [AA-029, 3-tert-butyl-N-(3-(2-oxo-1,2-dihydropyrido[2,3-b]pyrazin-8-yloxy)phenyl)benzamide] | < 100 nM
Cc1nc2c(Oc3cccc(NC(=O)c4cccc(C(C)(C)C)c4)c3)ccnc2[nH]c1=O [AA-005, 3-tert-butyl-N-(3-(2-methyl-3-oxo-3,4-dihydropyrido[2,3-b]pyrazin-8-yloxy)phenyl)benzamide] | < 100 nM
CN1CCN(c2cnc3c(Oc4ccc(NC(=O)Nc5cc(C(C)(C)C)nn5-c5ccccc5)c(F)c4)ccnc3n2)CC1 [AA-053, 1-(3-Tert-butyl-1-phenyl-1H-pyrazol-5-yl)-3-(2-fluoro-4-(3-(4-methylpiperazin-1-yl)pyrido[2,3-b]pyrazin-8-yloxy)phenyl)urea] | < 1000 nM and 100 to 1000 nM
O=C(Nc1cccc(Oc2ccnc3[nH]c(=O)cnc23)c1)c1cccc(OC(F)(F)F)c1 [AA-002, N-(3-(3-oxo-3,4-dihydropyrido[2,3-b]pyrazin-8-yloxy)phenyl)-3-(trifluoro-methoxy)benzamide] | < 100 nM
CC(C)(C)c1cc(NC(=O)Nc2ccc(Oc3ccnc4[nH]c(=O)cnc34)c3ccccc23)n(-c2ccccc2)n1 [AA-008, 1-(3-tert-butyl-1-phenyl-1H-pyrazol-5-yl)-3-(4-(3-oxo-3,4-dihydropyrido[2,3-b]pyrazin-8-yloxy)naphthalen-1-yl)urea] | < 100 nM
CC(C)(C)c1cc(NC(=O)Nc2ccc(Oc3ccnc4ncc(=O)[nH]c34)c3ccccc23)n(-c2ccccc2)n1 [AA-034, 1-(3-tert-butyl-1-phenyl-1H-pyrazol-5-yl)-3-(4-(2-oxo-1,2-dihydropyrido[2,3-b]pyrazin-8-yloxy)naphthalen-1-yl)urea] | < 1000 nM and 100 to 1000 nM
CSc1cc(Oc2ccnc3[nH]c(=O)cnc23)ccc1NC(=O)Nc1cc(C(C)(C)C)nn1-c1ccc(C)cc1 [AA-017, 1-(3-tert-butyl-1-p-tolyl-1H-pyrazol-5-yl)-3-(2-(methylthio)-4-(3-oxo-3,4-dihydropyrido[2,3-b]pyrazin-8-yloxy)phenyl)urea] | < 100 nM
Cc1ccc(-n2nc(C(C)(C)C)cc2NC(=O)Nc2ccc(Oc3ccnc4[nH]c(=O)cnc34)cc2)cc1 [AA-016, 1-(3-tert-butyl-1-p-tolyl-1H-pyrazol-5-yl)-3-(4-(3-oxo-3,4-dihydropyrido[2,3-b]pyrazin-8-yloxy)phenyl)urea] | < 1000 nM and 100 to 1000 nM and 252 nM
Cc1ccc(-n2nc(C(C)(C)C)cc2NC(=O)Nc2cccc(Oc3ccnc4ncc(=O)[nH]c34)c2)cc1 [AA-031, 1-(3-tert-butyl-1-p-tolyl-1H-pyrazol-5-yl)-3-(3-(2-oxo-1,2-dihydropyrido[2,3-b]pyrazin-8-yloxy)phenyl)urea] | < 1000 nM and 100 to 1000 nM
CC(C)(C)c1cccc(C(=O)Nc2cccc(Oc3ccnc4[nH]c(=O)cnc34)c2)c1 [AA-003, 3-tert-butyl-N-(3-(3-oxo-3,4-dihydropyrido[2,3-b]pyrazin-8-yloxy)phenyl)benzamide] | < 100 nM
Cc1ccc(-n2nc(C(C)(C)C)cc2NC(=O)Nc2ccc(Oc3ccnc4[nH]c(=O)cnc34)c3ccccc23)cc1 [AA-010, 1-(3-tert-butyl-1-p-tolyl-1H-pyrazol-5-yl)-3-(4-(3-oxo-3,4-dihydropyrido[2,3-b]pyrazin-8-yloxy)naphthalen-1-yl)urea] | < 100 nM
CC(C)(C)c1cc(NC(=O)Nc2ccc(Oc3ccnc4[nH]c(=O)cnc34)cc2F)n(-c2ccccc2)n1 [AA-019, 1-(3-tert-butyl-1-phenyl-1H-pyrazol-5-yl)-3-(2-fluoro-4-(3-oxo-3,4-dihydropyrido[3,2-b]pyrazin-8-yloxy)phenyl)urea] | < 100 nM
